Assay [1] deals with microfilariae of Dirofilaria immitis. As to the kind of experiment: Dirofilaria immitis, Microfilaria (DiMF) In vitro Assay. The assay is classed as cell-based. Particulars: 72 h, read-out: DiMF Minimum Effective Dose (MED), approximately 72 hours incubation, microfilariae assessed for survival or paralysis.
The subject of assay [2] is third stage larvae of Haemonchus contortus. As to the kind of experiment: Haemonchus contortus L3 (HcL3) Assay. The assay is classed as cell-based. The note with it: 96 h, read-out: HcL3 Minimum Effective Dose (MED).

The structures appear in SMILES notation.

Regarding `CC(C)C[C@H]1C(=O)O[C@H](C)C(=O)N(C)[C@@H](CC(C)C)C(=O)O[C@H](Cc2ccccc2)C(=O)N(C)[C@@H](CC(C)C)C(=O)O[C@H](C)C(=O)N(C)[C@@H](CC(C)C)C(=O)O[C@@H](Cc2ccc(CN3CCC(F)(F)CC3)cc2)C(=O)N1C` [Example 10-3, (3S,6R,9S,12R,15S,18S,21S,24R)-6-benzyl-18-(4-((4,4-difluoropiperidin-1-yl)methyl)benzyl)-3,9,15,21-tetraisobutyl-4,10,12,16,22,24-hexamethyl-1,7,13,19-tetraoxa-4,10,16,22-tetraazacyclotetracosan-2,5,8,11,14,17,20,23-octaone], the minimal effective concentration in assay [1] was 0.01 to 0.1 µM; in assay [2], 1 to 10 µM.

On to `Cc1nc(C2CC2)n(Cc2ccc(C[C@H]3OC(=O)[C@H](CC(C)C)N(C)C(=O)[C@@H](C)OC(=O)[C@H](CC(C)C)N(C)C(=O)[C@@H](Cc4ccc(Cn5nc(C)nc5C5CC5)cc4)OC(=O)[C@H](CC(C)C)N(C)C(=O)[C@@H](C)OC(=O)[C@H](CC(C)C)N(C)C3=O)cc2)n1` [Example 9-57, (3S,6R,9S,12R,15S,18R,21S,24R)-6,18-bis(4-((5-cyclopropyl-3-methyl-1H-1,2,4-triazol-1-yl)methyl)benzyl)-3,9,15,21-tetraisobutyl-4,10,12,16,22,24-hexamethyl-1,7,13,19-tetraoxa-4,10,16,22-tetraazacyclotetracosan-2,5,8,11,14,17,20,23-octaone], for which the results for the minimal effective concentration in assay [1] and in assay [2] were 0.01 to 0.1 µM and 1 to 10 µM, respectively.

Regarding `CCc1ccn(Cc2ccc(C[C@H]3OC(=O)[C@H](CC(C)C)N(C)C(=O)[C@@H](C)OC(=O)[C@H](CC(C)C)N(C)C(=O)[C@@H](Cc4ccc(Cn5ccc(CC)n5)cc4)OC(=O)[C@H](CC(C)C)N(C)C(=O)[C@@H](C)OC(=O)[C@H](CC(C)C)N(C)C3=O)cc2)n1` [Example 1b-95, (3S,6R,9S,12R,15S,18R,21S,24R)-6,18-bis(4-((3-ethyl-1H-pyrazol-1-yl)methyl)benzyl)-3,9,15,21-tetraisobutyl-4,10,12,16,22,24-hexamethyl-1,7,13,19-tetraoxa-4,10,16,22-tetraazacyclotetracosan-2,5,8,11,14,17,20,23-octaone], the results for the minimal effective concentration in assay [1] and in assay [2] were 0.001 to 0.01 µM and 1 to 10 µM, respectively.

Regarding `CC(C)C[C@H]1C(=O)O[C@H](Cc2ccc(CN3C(=O)CCC3=O)cc2)C(=O)N(C)[C@@H](CC(C)C)C(=O)O[C@H](C)C(=O)N(C)[C@@H](CC(C)C)C(=O)O[C@H](Cc2ccc(CN3C(=O)CCC3=O)cc2)C(=O)N(C)[C@@H](CC(C)C)C(=O)O[C@H](C)C(=O)N1C` [Example 9-11, (3S,6R,9S,12R,15S,18R,21S,24R)-6,18-bis(4-((2,5-dioxopyrrolidin-1-yl)methyl)benzyl)-3,9,15,21-tetraisobutyl-4,10,12,16,22,24-hexamethyl-1,7,13,19-tetraoxa-4,10,16,22-tetraazacyclotetracosan-2,5,8,11,14,17,20,23-octaone], the figures for the minimal effective concentration in assay [1] and in assay [2] were 0.001 to 0.01 µM and 1 to 10 µM, respectively.

For `CC(C)C[C@H]1C(=O)O[C@H](Cc2ccc(Cn3ccc(N)n3)cc2)C(=O)N(C)[C@@H](CC(C)C)C(=O)O[C@H](C)C(=O)N(C)[C@@H](CC(C)C)C(=O)O[C@H](Cc2ccccc2)C(=O)N(C)[C@@H](CC(C)C)C(=O)O[C@H](C)C(=O)N1C` [Example 2-87, (3S,6R,9S,12R,15S,18R,21S,24R)-6-(4-((3-amino-1H-pyrazol-1-yl)methyl)benzyl)-18-benzyl-3,9,15,21-tetraisobutyl-4,10,12,16,22,24-hexamethyl-1,7,13,19-tetraoxa-4,10,16,22-tetraazacyclotetracosan-2,5,8,11,14,17,20,23-octaone], the results for the minimal effective concentration in assay [1] and in assay [2] were 0.001 to 0.01 µM and 1 to 10 µM, respectively.
